From ChEMBL document CHEMBL1145467, “SME-2-producing Serratia marcescens isolate from Switzerland” (2007) come the findings set out here.

Structures are written as SMILES. Converted amounts (≈) assume the structure as drawn.

This assay concerns Serratia marcescens. Description: Antimicrobial activity against Serratia marcescens AW isolated from parotidectomy patient. The class given is functional.

On to `C[C@@H](O)[C@H]1C(=O)N2C(C(=O)O)=C(S[C@@H]3CN[C@H](C(=O)Nc4cccc(C(=O)O)c4)C3)[C@H](C)[C@H]12` [ERTAPENEM], for which inhibition of growth (MIC) required 4 µg/mL (≈ 8.41 µM). `C[C@@H](O)[C@H]1C(=O)N2C(C(=O)O)=C(SCCNC=N)C[C@H]12` [IMIPENEM ANHYDROUS] had an MIC of 32 µg/mL (≈ 107 µM). Compared with the last compound, the MIC is about 8-fold higher. The figure for `C[C@@H](O)[C@H]1C(=O)N2C(C(=O)O)=C(S[C@@H]3CN[C@H](C(=O)N(C)C)C3)[C@H](C)[C@H]12` [MEROPENEM] is 8 µg/mL (≈ 20.9 µM).
